The source of these data is patent publication US20030124571A1, “Novel human septin and uses therefor” (The Government of the United States of America, priority 2000, published 2003).

SMILES strings stand for the structures.

Experiment [1] has as its system NRP-154 cells. In words: Apoptosis / cell death (DNA laddering, morphology), NRP-154 cells. The experiment is classed as cell-based, rat. The settings on record: 24 hours; okadaic acid 30 nM, staurosporine 2 nM. How it is done: (§1) 2×10^5 M-NRP1 cells or NRP-154 cells were plated in 6-well dishes. After 24 hours, 2 ml DMEM/F12 containing 15 mM HEPES, 1% calf serum, and 0.1 μM dexamethasone were added to the plates. The cells were cultured at 37° C. for 24 hours and then detached by trypsinization.
(§2) Internucleosomal DNA ladders were detected with a modification (described below) of TACS apoptotic DNA ladder kit (Trevigen, Githersburg, Md.). Briefly, the detached cells were centrifuged at 600×g to form cell pellets. The cell pellets were then resuspended in 25 μl PBS and lysed by the addition of 25 μl of lysis buffer. DNA was purified from the mixture as directed by Trevigen.
The nicked ends of the DNA were ^32P-labeled by incubating 1 μg of DNA with 2.5 units of Klenow fragment of DNA Poll in the presence of 0.5 μCi of (α-^32P) dCTP (3 Ci/mmol, Dupont NEN, Boston, Mass.) for 30 min at room temperature in a 10 μl reaction volume containing 5 mM MgCl2 and 10 mM Tris-HCl (pH 7.5). One third of the labeled DNA was electrophoresed through 1.8% agarose-1×TAE at 70 V for 2 hours. […]
(§3) NRP-154 and M-NRP1 cells were treated with a control (i.e., the identical solution without the agent of interest) or with 10 ng/ml TGF-β, okadaic acid (30 nM) or staurosporine (2 nM) for 24 hours. Apoptosis was determined by DNA laddering, essentially as described in Example VA, above.

Experiment [2] deals with M-NRP1 cells. Briefly: Apoptosis (DNA laddering, morphology), M-NRP1 cells. The experiment is classed as cell-based, rat. The following applies: 24 hours; 10 ng/ml TGF-β, okadaic acid 30 nM, staurosporine 2 nM. On the procedure:
as §1, §2
The nicked ends of the DNA were ^32P-labeled by incubating 1 μg of DNA with 2.5 units of Klenow fragment of DNA Poll in the presence of 0.5 μCi of (α-^32P) dCTP (3 Ci/mmol, Dupont NEN, Boston, Mass.) for 30 min at room temperature in a 10 μl reaction volume containing 5 mM MgCl2 and 10 mM Tris-HCl (pH 7.5). One third of the labeled DNA was electrophoresed through 1.8% agarose-1×TAE at 70 V for 2 hours. Gels were dried and exposed to X-Omat AR (Kodak, Rochester, N.Y.) for about 1 hour.
Staurosporine and okadaic acid (Upstate Biotechnology Incorporated, Lake Placid, N.Y.) were dissolved in dimethyl sulfoxide (DMSO) and diluted to a final concentration of 2 nM and […], respectively, in 0.01% DMSO.
as §3

For `C=C1[C@@H](O)[C@@H]2O[C@]3(CC[C@H](/C=C/[C@@H](C)[C@@H]4CC(C)=C[C@@]5(O[C@H](C[C@@](C)(O)C(=O)O)CC[C@H]5O)O4)O3)CC[C@H]2O[C@@H]1[C@@H](O)C[C@H](C)[C@H]1O[C@@]2(CCCCO2)CC[C@H]1C` [okadaic acid], the apoptosis result in experiment [1] is “morphologically evident shrinkage, nuclear fragmentation, and loss of attachment characteristic of apoptosis”; in experiment [2], “remain sensitive to apoptosis”.
For `CN[C@@H]1C[C@H]2O[C@@](C)([C@@H]1OC)n1c3ccccc3c3c4c(c5c6ccccc6n2c5c31)C(=O)NC4` [staurosporine], the apoptosis entry is “morphologically evident shrinkage, nuclear fragmentation, and loss of attachment characteristic of apoptosis” in experiment [1]; “remain sensitive to apoptosis” in experiment [2].
